Measured values reported in ChEMBL document CHEMBL5131375, “Recent Developments in the Use of Kinase Inhibitors for Management of Viral Infections” (J Med Chem, 2022).

Tests used:
Influenza A virus [1] = experiment: Antiviral actiivty against Influenza A (A/Regensburg/D6/2009 (H1N1)) infected in human A549 cells; assay type: functional, organism-based
[2] = Cytotoxicity against human A549 cells; assay type: toxicity, cell-based
Hepatitis C virus [3] = experiment: microbe, parasite or virus in culture
Hepatitis C virus [4] = experiment: Antiviral activity against HCV GT1b-genotype assessed as inhibition of viral replication; assay type: functional, organism-based, Hepacivirus hominis
in vitro [5] = conditions: human, Huh-7 cells
Marburgvirus [6] = experiment: microbe, parasite or virus in culture; conditions: Orthomarburgvirus
[7] = system: Vesicular stomatitis virus; experiment: microbe, parasite or virus in culture
Ebolavirus [8] = experiment: microbe, parasite or virus in culture; conditions: Orthoebolavirus, Huh-7
Ebolavirus [9] = experiment: microbe, parasite or virus in culture; assay type: functional, organism-based; conditions: Orthoebolavirus
Lassa virus [10] = experiment: microbe, parasite or virus in culture; conditions: Mammarenavirus lassaense
Marburgvirus [11] = experiment: microbe, parasite or virus in culture; assay type: functional, organism-based; conditions: Orthomarburgvirus
Ebolavirus [12] = experiment: microbe, parasite or virus in culture; conditions: Orthoebolavirus
Lassa virus [13] = experiment: microbe, parasite or virus in culture; conditions: Mammarenavirus lassaense, A549
in vitro [14] = conditions: chlorocebus sabaeus, vero
Ebolavirus [15] = experiment: microbe, parasite or virus in culture; conditions: Orthoebolavirus; remark: listed apart in the source
Lassa virus [16] = experiment: microbe, parasite or virus in culture; conditions: Mammarenavirus lassaense; remark: listed apart in the source
[17] = molecular target: Tyrosine-protein kinase JAK2 (Homo sapiens, UniProt O60674)
SARS-CoV-2 [18] = experiment: microbe, parasite or virus in culture; assay type: functional, organism-based; conditions: Severe acute respiratory syndrome coronavirus 2
SARS-CoV-2 [19] = experiment: microbe, parasite or virus in culture; assay type: functional, organism-based; conditions: Severe acute respiratory syndrome coronavirus 2, Huh-7
in vitro [20] = conditions: chlorocebus sabaeus, vero c1008
Janus Kinase (JAK) = Janus Kinase (JAK) (Homo sapiens, UniProt P52333+P23458+O60674+P29597); assay type: protein assay
Influenza A virus [21] = experiment: microbe, parasite or virus in culture; assay type: functional, organism-based
in vitro [22] = conditions: dog, MDCK cells
SARS-CoV-2 [23] = experiment: microbe, parasite or virus in culture; assay type: functional, organism-based, Vero E6; conditions: Severe acute respiratory syndrome coronavirus 2, Vero C1008
Vero C1008 = experiment: Cytotoxicity against African green monkey Vero E6 cells at 250 nM; assay type: toxicity, cell-based; conditions: chlorocebus sabaeus, vero c1008, 0.25 µM
[24] = Volume of distribution at steady state in Beagle dog plasma at 1 mg/kg, iv at […] LC-MS/MS analysis; assay type: ADME, organism-based, Canis lupus familiaris; conditions: time 0.083 hrs, read-out: Vdss
[25] = Volume of distribution at steady state in CD-1 mouse plasma at 10 mg/kg, iv at […] LC-MS/MS analysis; assay type: ADME, organism-based; conditions: time 0.083 hrs, read-out: Vdss
[26] = Volume of distribution at steady state in cynomolgus monkey plasma at 3 mg/kg, iv at […] LC-MS/MS analysis; assay type: ADME, organism-based, Macaca fascicularis; conditions: time 0.083 hrs, read-out: Vdss
[27] = Volume of distribution at steady state in Han-Wistar rat plasma at 5 mg/kg, iv at […] LC-MS/MS analysis; assay type: ADME, organism-based; conditions: time 0.083 hrs, read-out: Vdss
Influenza A virus [28] = experiment: microbe, parasite or virus in culture; assay type: functional, organism-based; conditions: H1N1pdm09
Influenza A virus [29] = experiment: microbe, parasite or virus in culture; assay type: functional, organism-based; conditions: H3N2
[30] = Cytotoxicity against golden hamster BSR cells; assay type: toxicity, cell-based, Mesocricetus auratus
Lyssavirus rabies = experiment: microbe, parasite or virus in culture; assay type: functional, organism-based
Influenza A virus [31] = experiment: Antiviral activity against influenza A/Regensburg/D6/2009 virus; assay type: functional, organism-based
[32] = molecular target: Receptor tyrosine-protein kinase erbB-2 (Homo sapiens, UniProt P04626); experiment: Inhibition of HER2/ErbB-2 (unknown origin)
Influenza A virus [33] = experiment: Antiviral activity against influenza A virus infected in human A549 cells assessed as inhibition of viral replication at 10 uM relative to control; assay type: functional; design: scale not given: the % may be the effect or the level left
[34] = molecular target: AP2-associated protein kinase 1 (Homo sapiens, UniProt Q2M2I8)
Chain of AP2-associated protein kinase 1 (Q2M2I8 whole entry): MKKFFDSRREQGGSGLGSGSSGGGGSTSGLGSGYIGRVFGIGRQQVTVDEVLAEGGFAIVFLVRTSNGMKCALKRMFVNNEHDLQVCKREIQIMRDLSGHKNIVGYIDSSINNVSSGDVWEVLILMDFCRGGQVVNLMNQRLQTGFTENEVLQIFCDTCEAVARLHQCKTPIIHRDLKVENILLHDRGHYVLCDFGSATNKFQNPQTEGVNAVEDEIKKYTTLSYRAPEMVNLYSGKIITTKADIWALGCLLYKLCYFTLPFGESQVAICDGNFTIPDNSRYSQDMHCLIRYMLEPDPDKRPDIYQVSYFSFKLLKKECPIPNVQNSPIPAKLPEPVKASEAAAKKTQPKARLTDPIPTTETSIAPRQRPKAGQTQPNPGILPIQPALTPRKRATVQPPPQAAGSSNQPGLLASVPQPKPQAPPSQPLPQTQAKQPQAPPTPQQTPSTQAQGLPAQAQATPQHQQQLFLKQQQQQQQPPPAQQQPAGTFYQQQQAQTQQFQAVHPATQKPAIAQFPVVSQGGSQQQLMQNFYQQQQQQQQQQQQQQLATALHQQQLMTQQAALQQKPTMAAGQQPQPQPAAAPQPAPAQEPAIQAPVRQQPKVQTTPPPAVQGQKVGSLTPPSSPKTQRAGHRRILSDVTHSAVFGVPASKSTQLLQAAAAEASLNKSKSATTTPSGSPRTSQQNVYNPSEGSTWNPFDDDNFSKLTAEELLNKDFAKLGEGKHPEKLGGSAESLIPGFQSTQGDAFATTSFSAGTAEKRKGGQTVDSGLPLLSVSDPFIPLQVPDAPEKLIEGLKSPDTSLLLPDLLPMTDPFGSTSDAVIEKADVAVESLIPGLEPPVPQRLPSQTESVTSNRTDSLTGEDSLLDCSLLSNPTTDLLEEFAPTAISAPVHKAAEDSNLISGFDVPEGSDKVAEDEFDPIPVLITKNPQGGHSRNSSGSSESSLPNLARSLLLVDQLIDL

Chain of Tyrosine-protein kinase JAK2 (O60674 whole entry): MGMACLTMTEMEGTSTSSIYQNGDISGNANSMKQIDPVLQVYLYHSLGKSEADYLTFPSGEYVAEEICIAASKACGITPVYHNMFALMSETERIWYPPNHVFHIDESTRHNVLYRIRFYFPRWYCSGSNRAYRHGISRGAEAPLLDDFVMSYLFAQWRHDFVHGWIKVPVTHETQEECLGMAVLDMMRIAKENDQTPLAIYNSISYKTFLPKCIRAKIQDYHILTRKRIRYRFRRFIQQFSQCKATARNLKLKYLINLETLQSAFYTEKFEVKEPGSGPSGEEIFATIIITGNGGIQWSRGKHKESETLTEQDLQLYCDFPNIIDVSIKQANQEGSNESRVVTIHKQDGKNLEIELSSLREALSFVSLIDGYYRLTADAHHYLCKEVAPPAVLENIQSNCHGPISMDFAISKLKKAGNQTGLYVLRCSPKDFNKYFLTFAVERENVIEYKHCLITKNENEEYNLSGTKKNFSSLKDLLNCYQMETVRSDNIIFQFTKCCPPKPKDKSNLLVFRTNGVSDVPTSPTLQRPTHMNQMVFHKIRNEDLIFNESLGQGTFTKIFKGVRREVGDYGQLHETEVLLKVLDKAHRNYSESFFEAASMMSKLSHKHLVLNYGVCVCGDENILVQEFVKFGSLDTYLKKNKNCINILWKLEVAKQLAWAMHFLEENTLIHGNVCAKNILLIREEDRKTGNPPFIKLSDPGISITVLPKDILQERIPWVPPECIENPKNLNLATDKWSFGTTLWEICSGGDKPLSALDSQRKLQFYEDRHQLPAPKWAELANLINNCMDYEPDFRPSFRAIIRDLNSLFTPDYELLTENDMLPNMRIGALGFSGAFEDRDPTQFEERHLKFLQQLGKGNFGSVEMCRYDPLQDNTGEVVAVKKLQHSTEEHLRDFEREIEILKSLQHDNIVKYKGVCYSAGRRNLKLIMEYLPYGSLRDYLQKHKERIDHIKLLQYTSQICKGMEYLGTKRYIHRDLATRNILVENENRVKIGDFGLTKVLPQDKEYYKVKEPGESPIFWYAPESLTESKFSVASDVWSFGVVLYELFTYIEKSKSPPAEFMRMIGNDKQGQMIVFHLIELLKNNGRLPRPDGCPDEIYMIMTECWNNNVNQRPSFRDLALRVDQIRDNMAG
Chain of Receptor tyrosine-protein kinase erbB-2 (P04626 whole entry): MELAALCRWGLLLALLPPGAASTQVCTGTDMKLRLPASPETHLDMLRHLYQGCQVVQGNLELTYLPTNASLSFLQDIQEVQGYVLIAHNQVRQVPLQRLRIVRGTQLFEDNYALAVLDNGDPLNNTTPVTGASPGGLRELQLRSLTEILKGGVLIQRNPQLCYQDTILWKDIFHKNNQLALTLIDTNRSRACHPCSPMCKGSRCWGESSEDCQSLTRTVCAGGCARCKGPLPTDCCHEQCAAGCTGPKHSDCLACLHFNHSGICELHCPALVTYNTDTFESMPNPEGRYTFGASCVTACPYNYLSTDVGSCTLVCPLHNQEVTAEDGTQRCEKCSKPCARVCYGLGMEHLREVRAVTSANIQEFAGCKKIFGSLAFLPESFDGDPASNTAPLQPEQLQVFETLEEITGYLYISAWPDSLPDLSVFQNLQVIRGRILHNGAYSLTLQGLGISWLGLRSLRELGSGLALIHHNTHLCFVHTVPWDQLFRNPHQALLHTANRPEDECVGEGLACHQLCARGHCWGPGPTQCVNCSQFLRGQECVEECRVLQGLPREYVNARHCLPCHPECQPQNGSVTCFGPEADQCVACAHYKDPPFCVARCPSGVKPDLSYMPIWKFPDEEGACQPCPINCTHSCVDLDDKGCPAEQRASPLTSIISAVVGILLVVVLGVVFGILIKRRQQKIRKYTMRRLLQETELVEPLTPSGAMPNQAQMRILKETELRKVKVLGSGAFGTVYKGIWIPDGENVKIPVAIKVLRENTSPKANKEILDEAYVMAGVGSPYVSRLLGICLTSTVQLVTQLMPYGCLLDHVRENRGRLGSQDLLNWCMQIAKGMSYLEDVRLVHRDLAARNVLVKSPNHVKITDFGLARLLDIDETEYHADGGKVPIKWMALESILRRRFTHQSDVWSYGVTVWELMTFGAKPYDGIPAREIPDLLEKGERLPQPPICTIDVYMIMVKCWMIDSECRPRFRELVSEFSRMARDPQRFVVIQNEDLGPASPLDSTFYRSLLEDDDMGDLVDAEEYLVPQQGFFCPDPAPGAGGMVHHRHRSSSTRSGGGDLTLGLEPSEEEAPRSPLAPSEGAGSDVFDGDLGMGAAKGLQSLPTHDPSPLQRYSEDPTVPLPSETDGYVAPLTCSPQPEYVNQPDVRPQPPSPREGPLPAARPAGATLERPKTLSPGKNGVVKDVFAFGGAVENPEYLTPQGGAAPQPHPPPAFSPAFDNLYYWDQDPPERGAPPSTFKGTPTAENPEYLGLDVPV

Q: Which EC50 (Influenza A virus [1]) does the source give for `O=C(NOCC1CC1)c1ccc(F)c(F)c1Nc1ccc(I)cc1Cl` [CI-1040] here?
A: 26 nM

Q: And the CC50 [2]?
A: 312000 nM

Q: Which CC50 [2] does the source give for `CCc1cnn2c(NCc3ccc[n+]([O-])c3)cc(N3CCCC[C@H]3CCO)nc12` [DINACICLIB] here?
A: > 100000 nM

Q: For `CC(C)S(=O)(=O)n1c(N)nc2ccc(/C(=N/O)c3ccccc3)cc21` [ENVIROXIME], which EC50 (Hepatitis C virus [3]) is on record?
A: 200 nM

Q: And the EC50 (Hepatitis C virus [4])?
A: 100 nM

Q: What about the CC50 (in vitro [5]) of the same compound?
A: 25000 nM

Q: What does the source list for `CN1CCC(Nc2ncc3ncnc(Nc4ccc(F)c(Cl)c4)c3n2)CC1` [FALNIDAMOL]?
A: EC50 (Marburgvirus [6]): 1800 nM; EC50 [7]: 30900 nM; EC50 (Ebolavirus [8]): 1100 nM; EC50 (Ebolavirus [9]): 1100 nM; EC50 (Lassa virus [10]): 7500 nM; EC50 (Marburgvirus [11]): 1800 nM; EC50 (Ebolavirus [12]): 1200 nM; EC50 (Lassa virus [13]): 3200 nM; CC50 (in vitro [14]): 29100 nM; EC50 (Ebolavirus [15]): 1600 nM; EC50 (Lassa virus [16]): 3200 nM

Q: Which IC50 [17] does the source give for `Cc1cc(Nc2cc(CN3CCOCC3)c3nc(C)c(Cc4ccc(Cl)cc4F)n3n2)n[nH]1` [GANDOTINIB] here?
A: 3 nM

Q: Which results are given for `CCc1nc(C(N)=O)c(Nc2ccc(N3CCC(N4CCN(C)CC4)CC3)c(OC)c2)nc1NC1CCOCC1` [GILTERITINIB]?
A: EC50 (SARS-CoV-2 [18]): 225 nM; IC50 (SARS-CoV-2 [19]): 225 nM; CC50 (in vitro [20]): > 500 nM

Q: For `N#CCC1CCN(c2nc(Nc3ccc(N4CCC(O)CC4)cc3)c3c(=O)[nH]ncc3n2)CC1` [GUSACITINIB], which IC50 (Janus Kinase (JAK)) is on record?
A: 5 nM

Q: With `CCS(=O)(=O)Nc1ccc2c(c1)/C(=C(/Nc1ccc(CN3CCCCC3)cc1)c1ccccc1)C(=O)N2` [HESPERADIN] as the compound, how does the EC50 (Influenza A virus [21]) read?
A: 280 nM

Q: What about the CC50 (in vitro [22]) of the same compound?
A: 21300 nM

Q: Which EC50 (SARS-CoV-2 [23]) does the source give for `Cc1cc(Nc2cc3ncccc3c(N[C@@H]3C[C@H]4CC[C@@H](C3)N4CCC#N)n2)n[nH]1` [IZENCITINIB] here?
A: 20 nM

Q: What about the IC50 (SARS-CoV-2 [19]) of the same compound?
A: 20 nM

Q: With `O=C(NOC[C@H](O)CO)c1ccc(F)c(F)c1Nc1ccc(I)cc1F` [MIRDAMETINIB] as the compound, how does the CC50 [2] read?
A: > 100000 nM

Q: For `Cc1cn(-c2cc(NC(=O)c3ccc(C)c(Nc4nccc(-c5cccnc5)n4)c3)cc(C(F)(F)F)c2)cn1` [NILOTINIB], which Activity (Vero C1008) is on record?
A: Non-Toxic

Q: What about the Vd at […] [24] of the same compound?
A: 0.55 L/kg

Q: What about the EC50 (SARS-CoV-2 [18]) of the same compound?
A: 80 nM

Q: What about the Vd at […] [25] of the same compound?
A: 0.55 L/kg

Q: And the Vd at […] [26]?
A: 0.55 L/kg

Q: What about the Vd at […] [27] of the same compound?
A: 0.55 L/kg

Q: Which IC50 [17] does the source give for `C[C@H](Nc1cc(-c2cnn(C)c2)cc(Nc2cnccn2)n1)c1ccc(F)cc1` [NS-018] here?
A: 0.27 nM

Q: What does the source list for `COc1cc(F)c(F)c(Nc2ccc(I)cc2F)c1NS(=O)(=O)C1(C[C@H](O)CO)CC1` [REFAMETINIB]?
A: CC50 [2]: > 100000 nM; IC50 (Influenza A virus [28]): 60 nM

Q: Which results are given for `CNC(=O)c1cc(Oc2ccc(NC(=O)Nc3ccc(Cl)c(C(F)(F)F)c3)c(F)c2)ccn1` [REGORAFENIB]?
A: CC50 [2]: 14200 nM; EC50 (Influenza A virus [29]): 890 nM

Q: Which CC50 [30] does the source give for `CC(=O)c1c(O)c(C)c(O)c(Cc2c(O)c3c(c(C(=O)/C=C/c4ccccc4)c2O)OC(C)(C)C=C3)c1O` [ROTTLERIN] here?
A: 100000 nM

Q: What about the EC50 (Lyssavirus rabies) of the same compound?
A: 1000 nM

Q: For `Cn1cnc2c(F)c(Nc3ccc(Br)cc3Cl)c(C(=O)NOCCO)cc21` [SELUMETINIB], which CC50 [2] is on record?
A: > 100000 nM

Q: What about the EC50 (Influenza A virus [28]) of the same compound?
A: 750 nM

Q: And the EC50 (Influenza A virus [31])?
A: 750 nM

Q: Which results are given for `CC(C)(C)c1cc(/C=C(\C#N)C(N)=S)cc(C(C)(C)C)c1O` [TYRPHOSTIN AG 879]?
A: IC50 [32]: 1000 nM; IC50 (Influenza A virus [21]): 10000 nM; CC50 [2]: > 81000 nM; Activity (Influenza A virus [33]): 50%

Q: For `CC[C@@H]1CN(C(=O)NCC(F)(F)F)C[C@@H]1c1cnc2cnc3[nH]ccc3n12` [UPADACITINIB], which Kd [34] is on record?
A: 9900 nM

Q: Which Activity (Vero C1008) does the source give for `CNC(=O)c1cccc(-c2ccc3c(N4CCOC[C@@H]4C)nc(N4CCOC[C@@H]4C)nc3n2)c1` [VISTUSERTIB] here?
A: Non-Toxic

Q: And the EC50 (SARS-CoV-2 [18])?
A: 15.9 nM
